Results taken from PubChem BioAssay (NCI).
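Each compound was tested at five concentrations against cells in 96-well plates for 48 hours. At the TGI there is no net growth.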

How the values were obtained:
Test in all cases: NCI anticancer screen, dose series, 48 h
HOP-62 NSCLC = tested on: HOP-62 NSCLC
IGROV1 ovarian = tested on: IGROV1 ovarian
KM12 colon = tested on: KM12 colon
SF-539 CNS = tested on: SF-539 CNS
HCT-116 colon = tested on: HCT-116 colon
SNB-19 CNS = tested on: SNB-19 CNS
EKVX NSCLC = tested on: EKVX NSCLC
LOX IMVI melanoma = tested on: LOX IMVI melanoma
COLO 205 colon = tested on: COLO 205 colon
HT29 colon = tested on: HT29 colon
PC-3 prostate = tested on: PC-3 prostate
NCI-H23 lung = tested on: NCI-H23 lung
SK-MEL-5 melanoma = tested on: SK-MEL-5 melanoma

## NCC(=O)C(O)C(O)C(O)CO (stereo not drawn)
HOP-62 NSCLC
  TGI: > 100 µM
IGROV1 ovarian
  TGI: > 100 µM
KM12 colon
  TGI: > 100 µM
SF-539 CNS
  TGI: > 100 µM
HCT-116 colon
  TGI: > 100 µM
SNB-19 CNS
  TGI: > 100 µM
EKVX NSCLC
  TGI: > 100 µM
LOX IMVI melanoma
  TGI: > 100 µM
COLO 205 colon
  TGI: > 100 µM
HT29 colon
  TGI: > 100 µM
PC-3 prostate
  TGI: > 100 µM
NCI-H23 lung
  TGI: > 100 µM
SK-MEL-5 melanoma
  TGI: > 100 µM

## O=C(NNC(=S)Nc1ccccc1)C12CC3CC(CC(C3)C1)C2
HOP-62 NSCLC
  TGI: > 100 µM
IGROV1 ovarian
  TGI: > 100 µM
KM12 colon
  TGI: > 100 µM
SF-539 CNS
  TGI: > 100 µM
HCT-116 colon
  TGI: > 94.3 µM
SNB-19 CNS
  TGI: > 100 µM
EKVX NSCLC
  TGI: > 100 µM
LOX IMVI melanoma
  TGI: > 91.9 µM
COLO 205 colon
  TGI: > 73.2 µM
HT29 colon
  TGI: > 100 µM
PC-3 prostate
  TGI: > 100 µM
NCI-H23 lung
  TGI: > 100 µM
SK-MEL-5 melanoma
  TGI: 42.6 µM

## C[C@]12CC[C@@H]3c4ccc(OC(=O)c5ccccc5)cc4CC[C@H]3[C@@H]1CCC2OC(=O)c1cccc2c(=O)c3ccccc3[nH]c12 (stereo partly drawn)
HOP-62 NSCLC
  TGI: 50.2 µM
IGROV1 ovarian
  TGI: 33.3 µM
KM12 colon
  TGI: 29.6 µM
SF-539 CNS
  TGI: 35.6 µM
HCT-116 colon
  TGI: 30.5 µM
SNB-19 CNS
  TGI: 80.6 µM
EKVX NSCLC
  TGI: 30.4 µM
LOX IMVI melanoma
  TGI: 31 µM
COLO 205 colon
  TGI: 33.1 µM
HT29 colon
  TGI: 20.7 µM
PC-3 prostate
  TGI: 29.8 µM
NCI-H23 lung
  TGI: 48.3 µM
SK-MEL-5 melanoma
  TGI: 57.9 µM

## CCc1cc(-c2nsc(=O)o2)c(S(=O)(=O)CC)s1
HOP-62 NSCLC
  TGI: > 100 µM
IGROV1 ovarian
  TGI: > 100 µM
KM12 colon
  TGI: > 100 µM
SF-539 CNS
  TGI: > 100 µM
HCT-116 colon
  TGI: > 100 µM
SNB-19 CNS
  TGI: > 100 µM
EKVX NSCLC
  TGI: > 100 µM
LOX IMVI melanoma
  TGI: > 100 µM
COLO 205 colon
  TGI: > 100 µM
HT29 colon
  TGI: > 100 µM
PC-3 prostate
  TGI: 85.1 µM
NCI-H23 lung
  TGI: > 100 µM
SK-MEL-5 melanoma
  TGI: > 100 µM

## O=C1O/C(=C\c2ccc(O)c(Br)c2)C(c2ccc(O)cc2)=C1Cl
HOP-62 NSCLC
  TGI: > 100 µM
IGROV1 ovarian
  TGI: > 100 µM
KM12 colon
  TGI: > 100 µM
SF-539 CNS
  TGI: > 100 µM
HCT-116 colon
  TGI: > 100 µM
SNB-19 CNS
  TGI: > 100 µM
EKVX NSCLC
  TGI: > 100 µM
LOX IMVI melanoma
  TGI: > 100 µM
COLO 205 colon
  TGI: > 100 µM
HT29 colon
  TGI: > 100 µM
PC-3 prostate
  TGI: > 100 µM
NCI-H23 lung
  TGI: 61.6 µM
SK-MEL-5 melanoma
  TGI: 53.5 µM

## CCCSc1cc(Cl)c(C)cc1S(=O)(=O)n1cc[nH]c1=O
HOP-62 NSCLC
  TGI: > 100 µM
IGROV1 ovarian
  TGI: > 100 µM
KM12 colon
  TGI: > 100 µM
SF-539 CNS
  TGI: > 100 µM
HCT-116 colon
  TGI: > 100 µM
SNB-19 CNS
  TGI: > 100 µM
EKVX NSCLC
  TGI: > 100 µM
LOX IMVI melanoma
  TGI: > 100 µM
COLO 205 colon
  TGI: > 100 µM
HT29 colon
  TGI: > 100 µM
PC-3 prostate
  TGI: > 100 µM
NCI-H23 lung
  TGI: > 100 µM
SK-MEL-5 melanoma
  TGI: > 100 µM

## CCCCCCCCCCCCCCCCOP(=O)(O)OP(=O)(O)OCC1OC(n2ccc(N)nc2=O)CC1O (stereo not drawn)
HOP-62 NSCLC
  TGI: > 100 µM
IGROV1 ovarian
  TGI: > 100 µM
KM12 colon
  TGI: > 100 µM
SF-539 CNS
  TGI: > 100 µM
HCT-116 colon
  TGI: > 100 µM
SNB-19 CNS
  TGI: > 100 µM
EKVX NSCLC
  TGI: > 100 µM
LOX IMVI melanoma
  TGI: > 100 µM
COLO 205 colon
  TGI: > 100 µM
HT29 colon
  TGI: > 100 µM
PC-3 prostate
  TGI: > 100 µM
NCI-H23 lung
  TGI: > 100 µM
SK-MEL-5 melanoma
  TGI: > 100 µM

## O=S(=O)(O)c1cc(S(=O)(=O)O)c2c(N=Nc3cccc4ccccc34)c(O)ccc2c1
HOP-62 NSCLC
  TGI: > 100 µM
IGROV1 ovarian
  TGI: > 100 µM
KM12 colon
  TGI: > 100 µM
SF-539 CNS
  TGI: > 100 µM
HCT-116 colon
  TGI: > 100 µM
SNB-19 CNS
  TGI: > 100 µM
EKVX NSCLC
  TGI: > 100 µM
LOX IMVI melanoma
  TGI: > 100 µM
COLO 205 colon
  TGI: > 100 µM
HT29 colon
  TGI: > 100 µM
PC-3 prostate
  TGI: > 100 µM
NCI-H23 lung
  TGI: > 100 µM
SK-MEL-5 melanoma
  TGI: > 100 µM

## O=C(O)c1ccc(Nc2ccnc3cc(Cl)ccc23)cc1O
HOP-62 NSCLC
  TGI: > 100 µM
IGROV1 ovarian
  TGI: > 100 µM
KM12 colon
  TGI: > 100 µM
SF-539 CNS
  TGI: 88.7 µM
HCT-116 colon
  TGI: > 100 µM
SNB-19 CNS
  TGI: > 100 µM
EKVX NSCLC
  TGI: > 100 µM
LOX IMVI melanoma
  TGI: > 100 µM
COLO 205 colon
  TGI: > 100 µM
HT29 colon
  TGI: > 100 µM
PC-3 prostate
  TGI: > 100 µM
NCI-H23 lung
  TGI: > 100 µM
SK-MEL-5 melanoma
  TGI: > 100 µM

## COC(=O)c1cc(NC2OCC(OC(C)=O)C(OC(C)=O)C2OC(C)=O)nc(SC)c1C(=O)OC (stereo not drawn)
HOP-62 NSCLC
  TGI: > 100 µM
IGROV1 ovarian
  TGI: > 100 µM
KM12 colon
  TGI: > 100 µM
SF-539 CNS
  TGI: > 100 µM
HCT-116 colon
  TGI: > 100 µM
SNB-19 CNS
  TGI: > 100 µM
EKVX NSCLC
  TGI: > 100 µM
LOX IMVI melanoma
  TGI: > 100 µM
COLO 205 colon
  TGI: > 100 µM
HT29 colon
  TGI: > 100 µM
PC-3 prostate
  TGI: > 100 µM
NCI-H23 lung
  TGI: > 100 µM
SK-MEL-5 melanoma
  TGI: > 100 µM

## CCCCCCCC1c2cc3[nH]c(cc4nc(cc5[nH]c(cc(n2)[C@@]1(C)CC(=O)N(C)C)c(C)c5CCC(=O)O)C(CCC(=O)O)=C4C)cc3C (stereo partly drawn)
HOP-62 NSCLC
  TGI: 35.4 µM
IGROV1 ovarian
  TGI: 39.6 µM
KM12 colon
  TGI: 58.5 µM
SF-539 CNS
  TGI: 34.2 µM
HCT-116 colon
  TGI: 32.5 µM
SNB-19 CNS
  TGI: 36.9 µM
EKVX NSCLC
  TGI: > 100 µM
LOX IMVI melanoma
  TGI: 33.3 µM
COLO 205 colon
  TGI: 32.2 µM
HT29 colon
  TGI: 39.8 µM
PC-3 prostate
  TGI: 64 µM
NCI-H23 lung
  TGI: 34.1 µM
SK-MEL-5 melanoma
  TGI: 51 µM

## CN(C(=O)OC(C)(C)C)[C@H]1CCCC[C@H]1N1CCCC1
HOP-62 NSCLC
  TGI: > 100 µM
IGROV1 ovarian
  TGI: > 100 µM
KM12 colon
  TGI: > 100 µM
SF-539 CNS
  TGI: > 100 µM
HCT-116 colon
  TGI: > 100 µM
SNB-19 CNS
  TGI: > 100 µM
EKVX NSCLC
  TGI: > 100 µM
LOX IMVI melanoma
  TGI: > 100 µM
COLO 205 colon
  TGI: > 100 µM
HT29 colon
  TGI: > 100 µM
PC-3 prostate
  TGI: > 100 µM
NCI-H23 lung
  TGI: > 100 µM
SK-MEL-5 melanoma
  TGI: > 100 µM

## N#Cc1c(C#N)c(-c2cccc([N+](=O)[O-])c2)n(-c2ccccc2)c1N
HOP-62 NSCLC
  TGI: > 100 µM
IGROV1 ovarian
  TGI: > 100 µM
KM12 colon
  TGI: > 100 µM
SF-539 CNS
  TGI: > 100 µM
HCT-116 colon
  TGI: > 100 µM
SNB-19 CNS
  TGI: > 100 µM
EKVX NSCLC
  TGI: > 100 µM
LOX IMVI melanoma
  TGI: > 100 µM
COLO 205 colon
  TGI: > 100 µM
HT29 colon
  TGI: > 100 µM
PC-3 prostate
  TGI: > 100 µM
NCI-H23 lung
  TGI: > 100 µM
SK-MEL-5 melanoma
  TGI: > 100 µM

## Cn1c(=O)n(-c2c3ccccc3c(Cl)c3ccccc23)n(C(C)(C)C)c1=O
HOP-62 NSCLC
  TGI: > 100 µM
IGROV1 ovarian
  TGI: > 100 µM
KM12 colon
  TGI: > 100 µM
SF-539 CNS
  TGI: > 100 µM
HCT-116 colon
  TGI: > 100 µM
SNB-19 CNS
  TGI: > 100 µM
EKVX NSCLC
  TGI: > 100 µM
LOX IMVI melanoma
  TGI: > 100 µM
COLO 205 colon
  TGI: > 100 µM
HT29 colon
  TGI: > 100 µM
PC-3 prostate
  TGI: > 100 µM
NCI-H23 lung
  TGI: > 100 µM
SK-MEL-5 melanoma
  TGI: > 100 µM

## CC(=O)C1(c2ccccc2)CCN(Cn2sc3nc(C)cc(C)c3c2=O)CC1
HOP-62 NSCLC
  TGI: > 100 µM
IGROV1 ovarian
  TGI: > 100 µM
KM12 colon
  TGI: > 100 µM
SF-539 CNS
  TGI: 50.9 µM
HCT-116 colon
  TGI: 52 µM
SNB-19 CNS
  TGI: > 100 µM
EKVX NSCLC
  TGI: 58.1 µM
LOX IMVI melanoma
  TGI: 57.8 µM
COLO 205 colon
  TGI: 33.8 µM
HT29 colon
  TGI: 36.9 µM
PC-3 prostate
  TGI: > 100 µM
NCI-H23 lung
  TGI: 41.6 µM
SK-MEL-5 melanoma
  TGI: > 100 µM

## NC(=S)SCCC(=O)O
HOP-62 NSCLC
  TGI: > 100 µM
IGROV1 ovarian
  TGI: > 100 µM
KM12 colon
  TGI: > 100 µM
SF-539 CNS
  TGI: > 100 µM
HCT-116 colon
  TGI: > 100 µM
SNB-19 CNS
  TGI: > 100 µM
EKVX NSCLC
  TGI: > 100 µM
LOX IMVI melanoma
  TGI: > 100 µM
COLO 205 colon
  TGI: > 100 µM
HT29 colon
  TGI: > 100 µM
PC-3 prostate
  TGI: > 100 µM
NCI-H23 lung
  TGI: > 100 µM
SK-MEL-5 melanoma
  TGI: > 100 µM
